{"source": "paper PMC4414309", "about": "“Target Modulation by a Kinase Inhibitor Engineered to Induce a Tandem Blockade of the Epidermal Growth Factor Receptor (EGFR) and c-Src: The Concept of Type III Combi-Targeting” (PLoS ONE, 2015)", "key": {"4T1 cells [1]": {"system": "4T1 cells", "assay": "Wound-healing assay, 4T1", "format": "cell-based, mouse", "conditions": "4T1, 0.1 μM, 24h drug exposure", "protocol": "(§1) MDA-MB-231 and 4T1 cells were plated in 6-well plates (500,000 cells/well) and allowed to attach overnight (37°C, 5% CO2). The following day, media was removed and a cross scratch was made in the middle of the cell monolayer. […] The scratch was visualized at two different time points (0 and 24h) using the Leica DM IL inverted microscope (10X) and images were obtained using the Leica DFC300FX camera."}, "MDA-MB-231 cells [2]": {"system": "MDA-MB-231 cells", "assay": "Wound-healing assay, MDA-MB-231", "format": "cell-based, human", "conditions": "MDA-MB-231, 0.1 μM, 24h drug exposure", "protocol": "as §1"}, "4T1 cells [3]": {"system": "4T1 cells", "assay": "Boyden chamber invasion assay, 4T1", "format": "cell-based, mouse", "conditions": "4T1, concentration as low as 0.1 μM, 24h", "protocol": "(§2) The invasive property of MDA-MB-231 and 4T1 cells was determined using the Boyden-chamber invasion assay. Cells suspended in serum-free media were plated (120–150,000 cells/well) onto polycarbonate transwell inserts (8 μm pore size, BD Biosciences) coated with matrigel (6%) (BD Biosciences), separating the top and bottom chambers (50 μl/filter). […] The invasive property of cells was observed 24h after treatment by fixing cells in formalin and staining with 0.1% crystal violet (Sigma-Aldrich Canada Ltd). Cells attached on the upper surface of the insert (top chamber) were removed by gently scraping away with a cotton swab, whereas those that invaded onto the lower side of the insert were observed using a microscope (Leica DM IL inverted microscope, 10X). Images of five non-overlapping fields of invading cells were captured using the Leica DFC300FX camera and quantification was done using the Scion Image Analysis (3.53.0.0) software and ImageJ 1.46r software. The results were expressed in terms of percentage of invading cells relative to control and the bar graphs represent the average of three independent experiments."}, "MDA-MB-231 cells [4]": {"system": "MDA-MB-231 cells", "assay": "Boyden chamber invasion assay, MDA-MB-231", "format": "cell-based, human", "conditions": "MDA-MB-231, concentration as low as 0.1 μM, 24h", "protocol": "as §2"}, "[5]": {"system": "NIH3T3 wild type and EGFR transfected cells", "assay": "Apoptosis by annexin V/PI flow cytometry", "format": "cell-based, mouse", "conditions": "48h", "protocol": "NIH3T3 cell lines (wild type and EGFR transfected) were plated in 6-well plates (500,000 cells/well) and allowed to grow overnight (37°C, 5% CO2). […] They were subsequently collected using trypsin (Wisent Inc., St-Bruno, Canada), centrifuged (2000 rpm, 5 min), rinsed with PBS and centrifuged again to obtain a cell pellet. The pellet was re-suspended in binding buffer (1X) and prior to being analyzed, annexin V-FITC and PI stains (eBioscience, San Diego, CA, USA) were added to the cells and incubated for 15 min in the dark at 4°C. Annexin V–FITC and PI binding were analyzed with a Becton Dickinson FACScan. Data were collected using logarithmic amplification of both the FL1 (FITC) and FL2 (PI) channels. Quadrant analysis of coordinate dot plots was done with CellQuestPro software. The experiment was carried out three times."}, "[6]": {"system": "NIH3T3-Her14 (EGFR transfected) cells", "assay": "Absorption and hydrolysis kinetics of AL776 in cells (HPLC)", "format": "in vitro ADME, mouse", "protocol": "NIH3T3-Her14 cells were seeded in 6-well plates (1 x 10^6 cells/well) and grown in DMEM with 10% FBS for 24 h. Cells were then treated with 25 μM of AL776 and incubated at 37°C for 1h, 2h, 6h, 24h or 48h. The media was collected and extracted using twice the volume of methanol, on ice and centrifuged for 20 min at 13,000 rpm at 4°C. The resulting supernatant was filtered, evaporated to dryness and reconstituted with 100 μL of methanol. Cells were collected using trypsin and the cell pellet obtained was rinsed once with PBS and lysed with methanol (500 μL /tube) on ice for 1h. The lysate was centrifuged at 13,000 rpm for 20 min at 4°C and the resulting supernatant was collected into a separate tube and the remaining pellet was subjected to lysis two more times (250 μL /tube). The supernatant from each lysis step were pooled all together, filtered, evaporated to dryness and resuspended in 100 μL of methanol before further analyzing the samples. HPLC analysis was performed using a ACE 5 C18 5 μm column (150 mmx4.6 mm) under elution conditions of gradient 70–75% methanol:water for the first 5 min and isocratic methanol elution until 30 min, using a 0.75 mL/min flow rate. Analyses were performed using a Thermoquest P4000 equipped with a UV2000 detector and an AS300 Autosampler."}, "MDA-MB-231 cells [7]": {"system": "MDA-MB-231 cells", "assay": "Growth inhibition, SRB assay, MDA-MB-231", "conditions": "Homo sapiens, MDA-MB-231, 120 h, read-out: IC50 growth inhibition MDA-MB-231", "quoted_text": "(§3) Growth inhibition was measured in cells using the sulforhodamine B (SRB) assay [48]. […] The plates were subsequently rinsed with 1% acetic acid, and allowed to dry overnight. […] The results were analyzed using GraphPad Prism 6.0 (GraphPadSoftware, Inc., San Diego, CA) and the sigmoidal dose response curve was used to determine IC50 values. Each experiment was carried out at least four times, in triplicate."}, "[8]": {"system": "EGFR phosphorylation in 4T1 tumours", "assay": "Pharmacodynamics in 4T1 tumours, EGFR phosphorylation", "conditions": "i.v., AL776 40 mg/kg, gefitinib + dasatinib 20 mg/kg each", "quoted_text": "(§4) Mice were implanted with 4T1 mammary tumour cells, 15 million cells/flank (suspended in 200 μL PBS), subcutaneously.\n(§5) Mice were sacrificed 1h or 24h after treatment and their tumours were collected and snap frozen at -80°C for further analysis using western blots. Tumours were crushed using a mortar/pestle chilled using liquid nitrogen and lysed with RIPA buffer diluted to a 1X concentration and supplemented with 1mM PMSF (Cell Signaling Technology, USA). Western blot analysis was carried out with the tumour samples, similar to the method described earlier."}, "[9]": {"system": "ERK1/2 phosphorylation in 4T1 tumours", "assay": "Pharmacodynamics in 4T1 tumours, ERK1/2 phosphorylation", "conditions": "i.v., AL776 40 mg/kg, gefitinib + dasatinib 20 mg/kg each", "quoted_text": "as §4, §5"}, "NIH3T3 wild type cells": {"system": "NIH3T3 wild type cells", "assay": "Growth inhibition, sulforhodamine B (SRB) assay, NIH3T3 wild type", "conditions": "Mus musculus, NIH3T3, 120 h, read-out: IC50 growth inhibition NIH3T3 – Wt", "quoted_text": "as §3"}}, "data": [{"smiles": "Cc1nc(Nc2ncc(C(=O)Nc3c(C)cccc3Cl)s2)cc(N2CCN(CCOC(=O)CCC(=O)OCCN(C)Cc3ccc(C(=O)Nc4ccc5ncnc(Nc6cccc(Cl)c6)c5c4)cc3)CC2)n1", "note": "[AL776]", "values": [{"measurement": "Effect on wound-closure", "setting": "4T1 cells [1]", "result": "blocked wound-closure"}, {"measurement": "Effect on wound-closure", "setting": "MDA-MB-231 cells [2]", "result": "blocked wound-closure"}, {"measurement": "Effect on invasion", "setting": "4T1 cells [3]", "result": "strongly inhibited invasion"}, {"measurement": "Effect on invasion", "setting": "MDA-MB-231 cells [4]", "result": "strongly inhibited invasion"}, {"measurement": "Level of apoptosis (early + late)", "setting": "[5]; 1μM dose", "result": "higher level of apoptosis than gefitinib or dasatinib"}, {"measurement": "Lowest concentration inducing apoptosis", "setting": "[5]", "result": 1, "unit": "µM"}, {"measurement": "Detection of AL776 in cells and extracellular medium", "setting": "[6]; 25 μM, 24–48h", "result": "detectable inside the cells but not in the extracellular medium"}, {"measurement": "Intact AL776 found in the cells", "setting": "[6]; 24h", "result": 50, "unit": "%"}, {"measurement": "IC50", "setting": "MDA-MB-231 cells [7]", "result": "0.05 ± 0.004", "unit": "µM"}, {"measurement": "Inhibition of EGFR phosphorylation in tumours", "setting": "[8]; 1h post-administration", "result": "strong blockade"}, {"measurement": "Inhibition of EGFR phosphorylation in tumours", "setting": "[8]; 24 h post-treatment", "result": "reversed"}, {"measurement": "Inhibition of ERK1/2 phosphorylation in tumours", "setting": "[9]; 1h post-administration", "result": "strongly inhibited"}, {"measurement": "Inhibition of ERK1/2 phosphorylation in tumours", "setting": "[9]; 24 h post-treatment", "result": "reversed"}, {"measurement": "IC50", "setting": "NIH3T3 wild type cells", "result": "7.6 ± 3", "unit": "µM"}]}]}
